Tests used:
[1] = tested on: SD rats; assay: SNL model in rats, mechanical hyperalgesia test; format: in vivo; conditions: 10 mg/kg by gavage, 1 hour after administration
Method: Male SPF grade SD rats, weighed 150-180 g, were selected. Aseptic operation during surgery was performed. The animals were anesthetized with sodium pentobarbital (50 mg/kg, intraperitoneal injection). The surgical area of animal waist was shaved and the skin was disinfected three times with iodophor and 70% ethanol. After the skin was dried, the operation was started. Surgical knife was used to make a longitudinal incision at the back of the sacrum of the animal waist to expose the left paraspinal muscles, and distractor was used to separate muscle tissue to expose the spine. The left spinal nerves L5 and L6 were separated and ligated with a 6-0 silk thread, and the wound was sutured. […]
The animals were weighed to calculate the dosage. […] During the test, rapid paw withdrawal of animal was recorded as pain response. When the test fiber was removed from animal skin, the paw withdrawal of animal was also recorded as pain response. If animal moved or walked, the pain response was not recorded and the test was repeated. […]
Mechanical hyperalgesia was expressed as paw withdrawal threshold (PWT) in rat behavioral test, which was calculated with the following formula: 50% response threshold (g)=(10^(Xf+k))/10,000; • Xf=the final test fiber value used in the test; • k=table value; • =mean difference

[2] = target: T1, TRPV4 (Homo sapiens, UniProt Q9HBA0); assay: Manual patch clamp detection on TRPV4 channel; format: cell-based; conditions: 10.00 μM, HEK293, GSK1016790A-induced current
T1 construct: expressed in transfected cells
T1 sequence (Q9HBA0 whole entry, species assumed): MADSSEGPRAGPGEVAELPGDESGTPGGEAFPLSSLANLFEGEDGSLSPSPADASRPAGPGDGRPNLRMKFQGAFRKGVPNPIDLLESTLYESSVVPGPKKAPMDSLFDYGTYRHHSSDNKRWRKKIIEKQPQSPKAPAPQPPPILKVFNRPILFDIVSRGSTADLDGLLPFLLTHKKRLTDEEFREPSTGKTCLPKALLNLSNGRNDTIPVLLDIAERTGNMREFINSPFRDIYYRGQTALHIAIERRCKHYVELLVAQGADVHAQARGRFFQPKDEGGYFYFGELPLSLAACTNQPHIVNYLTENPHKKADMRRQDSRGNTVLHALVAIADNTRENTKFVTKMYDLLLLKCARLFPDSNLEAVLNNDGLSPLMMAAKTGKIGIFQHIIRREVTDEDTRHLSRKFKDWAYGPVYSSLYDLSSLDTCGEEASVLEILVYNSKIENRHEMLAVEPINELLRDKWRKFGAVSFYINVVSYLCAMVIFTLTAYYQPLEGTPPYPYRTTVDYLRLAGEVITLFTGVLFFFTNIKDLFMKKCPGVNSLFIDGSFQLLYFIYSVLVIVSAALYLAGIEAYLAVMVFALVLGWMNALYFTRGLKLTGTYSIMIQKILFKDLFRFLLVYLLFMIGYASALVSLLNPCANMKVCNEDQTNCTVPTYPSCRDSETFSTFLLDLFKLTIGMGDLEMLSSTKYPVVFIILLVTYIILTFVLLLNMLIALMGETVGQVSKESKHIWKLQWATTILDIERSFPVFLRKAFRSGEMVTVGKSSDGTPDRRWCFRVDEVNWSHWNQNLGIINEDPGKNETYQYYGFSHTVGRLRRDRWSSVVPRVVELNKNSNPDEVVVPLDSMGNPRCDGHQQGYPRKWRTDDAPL
Method: TRPV4 cells were cultured in a cell culture dish with a diameter of 35 mm, placed in an incubator in 5% CO2 at 37° C., and passaged at a ratio of 1:5 every 48 hours. The formula of medium was 90% DMEM (Invitrogen), 10% fetal bovine serum (Gibco), 2 mM L-glutamine, 50 μg/mL Hygromycin B (Invitrogen) and 5 μg/mL Blasticidine HCl (Invitrogen). Before electrophysiological patch clamp experiment, the cell culture medium was replaced with medium containing 1 μg/mL doxycycline for at least 16 hours to induce the expression of TRPV4.
On the day of the experiment, the cell culture medium was aspirated, the cell were rinsed once with extracellular fluid, and then 0.25% Trypsin-EDTA (Invitrogen) solution was added, and digested at room temperature for 1-2 minutes. The digestion solution was aspirated, the cell were resuspended with extracellular fluid, and transferred to the experimental dish for electrophysiological recording for further experiment. […]
HEK293 cells stably expressing TRP channels, the corresponding agonist-induced channel current was recorded by whole-cell patch clamp technique at room temperature. […] Clamp voltages and data recording were controlled and recorded by a computer using pClamp 11 software with the sampling frequency of 10 kHz and the filtering frequency of 2 kHz. […] After the current was evoked for more than 40 s and no attenuation was determined, the dosing process started. […]

inhibition at 10 µM [2]: 4.68%
Structure (SMILES): CNCC[C@H](Oc1cccc2ccoc12)c1cccs1 [IC-1, (S)-3-(Benzofuran-7-yloxy)-N-methyl-3-(thiophen-2-yl)propan-1-amine]
PWT [1]: 7.869 ± 2.846 g

Source: patent publication US12492195B2, “Preparation method for and crystal form of 3-aryloxy-3-five-membered heteroaryl-propylamine compound” (Zhangzhou Pien Tze Huang Pharmaceutical Co., Ltd., priority 2020, dated 2025)
